Experimental data taken from patent US9073830B2 (Hyundai Pharm Co., Ltd., priority 2011, dated 2015).

Experiments:
[1] = target: T1, human 11β-HSD1 (Homo sapiens, UniProt P28845); test: Enzyme activity analysis on human 11β-HSD1 (HTRF cortisol, liver microsomes); type: biochemical; settings: first value of cell
T1 construct: 100 ug/ml human/mouse liver microsomes; from tissue; host or cells: human liver microsomes
Method: (§1) After culturing at 37° C. for 2 hours, 5 μl of cryptate-labeled anti-cortisol antibody and 5 μl of d2-labeled cortisol were added thereto. After further culturing at room temperature for 2 hours, a homogeneous time-resolved fluorescence (HTRF, Cisbio) signal was measured. From each analysis, based on a standard curve calculated using cortisols of several known concentrations, an amount of produced cortisol was tested.
(§2) While an amount of cortisol, produced without the compound, was used as a control, an inhibition percentage by the test compound, at each concentration, was calculated. By using an inhibition curve calculated by coordinates of inhibition percentage to test compound concentration, an IC50 value of the compound on 11β-HSD1 was obtained.

[2] = target: T2, mouse 11β-HSD1 (Mus musculus, UniProt P50172); test: Enzyme activity analysis on mouse 11β-HSD1 (HTRF cortisol, liver microsomes); type: biochemical; settings: second value of cell
T2 construct: 100 ug/ml human/mouse liver microsomes; from tissue; host or cells: mouse liver microsomes
Method: as §1, §2

T1 sequence (P28845 whole entry): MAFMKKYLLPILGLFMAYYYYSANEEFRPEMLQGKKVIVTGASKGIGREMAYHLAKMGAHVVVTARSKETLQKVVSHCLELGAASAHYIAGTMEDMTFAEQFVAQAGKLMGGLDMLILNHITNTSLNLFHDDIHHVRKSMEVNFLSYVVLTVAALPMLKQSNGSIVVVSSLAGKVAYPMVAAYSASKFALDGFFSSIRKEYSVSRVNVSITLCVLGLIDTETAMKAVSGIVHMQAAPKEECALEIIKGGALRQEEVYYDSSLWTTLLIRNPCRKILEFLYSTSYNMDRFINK
T2 sequence (P50172 whole entry): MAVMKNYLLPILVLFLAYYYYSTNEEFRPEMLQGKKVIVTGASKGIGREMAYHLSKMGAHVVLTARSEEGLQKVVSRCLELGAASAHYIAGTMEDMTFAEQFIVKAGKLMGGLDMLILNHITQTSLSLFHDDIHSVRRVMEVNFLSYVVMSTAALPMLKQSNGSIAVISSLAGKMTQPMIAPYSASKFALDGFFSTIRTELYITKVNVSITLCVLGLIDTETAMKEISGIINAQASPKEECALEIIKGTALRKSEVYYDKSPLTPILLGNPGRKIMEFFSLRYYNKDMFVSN

| IC50 [1] | IC50 [2] | SMILES |
| --- | --- | --- |
| 0.511 µM | 0.914 µM | CC(C)(NS(=O)(=O)c1cccc([N+](=O)[O-])c1)C(=O)NC1C2CC3CC(C2)CC1C3 (stereo not drawn) [compound 66, N-(adamantane-2-yl)-2-methyl-2-(3-nitrophenylsulfonamido)propanamide] |
| 1.29 µM | 1.26 µM | CCCc1ccc(S(=O)(=O)NC(C)(C)C(=O)NC2C3CC4CC(C3)CC2C4)cc1 (stereo not drawn) [compound 67, N-(adamantane-2-yl)-2-methyl-2-(4-propylphenylsulfonamido)propanamide] |
| 1.2 µM | 1.12 µM | COc1ccc(S(=O)(=O)NC(C)(C)C(=O)NC2C3CC4CC(C3)CC2C4)cc1[N+](=O)[O-] (stereo not drawn) [compound 68, N-(adamantane-2-yl)-2-methyl-2-(4-methoxy-3-nitrophenylsulfonamido)propanamide] |
| 0.118 µM | 0.258 µM | CC(C)(NS(=O)(=O)c1ccccc1F)C(=O)NC1C2CC3CC1CC(O)(C3)C2 (stereo not drawn) [compound 69, N-(5-hydroxyadamantane-2-yl)-2-methyl-2-(2-fluorophenylsulfonamido)propanamide] |
| 0.093 µM | 0.378 µM | CC(C)(NS(=O)(=O)c1ccccc1)C(=O)NC1C2CC3CC1CC(O)(C3)C2 (stereo not drawn) [compound 70] |
| 0.196 µM | 0.631 µM | COc1ccc(S(=O)(=O)NC(C)(C)C(=O)NC2C3CC4CC2CC(O)(C4)C3)cc1 (stereo not drawn) [compound 71, N-(5-hydroxyadamantane-2-yl)-2-methyl-2-(4-methoxyphenylsulfonamido)propanamide] |
| 0.111 µM | 0.138 µM | CC(C)(NS(=O)(=O)c1ccccc1C(F)(F)F)C(=O)NC1C2CC3CC1CC(O)(C3)C2 (stereo not drawn) [compound 72, N-(5-hydroxyadamantane-2-yl)-2-methyl-2-(2-trifluoromethylphenylsulfonamido)propan amide] |
| 0.017 µM | 0.042 µM | CC(C)(NS(=O)(=O)c1cccc(Cl)c1Cl)C(=O)NC1C2CC3CC1CC(O)(C3)C2 (stereo not drawn) [compound 73, N-(5-hydroxyadamantane-2-yl)-2-methyl-2-(2,3-dichlorophenylsulfonamido)propanamide] |
| 0.079 µM | 0.305 µM | CC(C)(NS(=O)(=O)c1c(F)cccc1F)C(=O)NC1C2CC3CC1CC(O)(C3)C2 (stereo not drawn) [compound 74, N-(5-hydroxyadamantane-2-yl)-2-methyl-2-(2,6-difluorophenylsulfonamido)propanamide] |
| 0.006 µM | 0.005 µM | CC(C)(NS(=O)(=O)c1cccc2cccnc12)C(=O)NC1C2CC3CC1CC(O)(C3)C2 (stereo not drawn) [compound 75, N-(5-hydroxyadamantane-2-yl)-2-methyl-2-(8-quinolinesulfonamido)propanamide] |
| 0.146 µM | 2.08 µM | Cc1ccc([N+](=O)[O-])cc1S(=O)(=O)NC(C)(C)C(=O)NC1C2CC3CC1CC(O)(C3)C2 (stereo not drawn) [compound 76, N-(5-hydroxyadamantane-2-yl)-2-methyl-2-(2-methyl-5-nitrophenylsulfonamido)propanamide] |
| 0.492 µM | 0.575 µM | CC(C)(NS(=O)(=O)c1cccc([N+](=O)[O-])c1)C(=O)NC1C2CC3CC1CC(O)(C3)C2 (stereo not drawn) [compound 77, N-(5-hydroxyadamantane-2-yl)-2-methyl-2-(3-nitrophenylsulfonamido)propanamide] |
| 0.692 µM | 1.21 µM | CC(C)(NS(=O)(=O)c1ccc([N+](=O)[O-])cc1)C(=O)NC1C2CC3CC1CC(O)(C3)C2 (stereo not drawn) [compound 78, N-(5-hydroxyadamantane-2-yl)-2-methyl-2-(4-nitrophenylsulfonamido)propanamide] |
| 0.083 µM | 0.797 µM | CC(C)(NS(=O)(=O)c1ccc(Cl)cc1[N+](=O)[O-])C(=O)NC1C2CC3CC1CC(O)(C3)C2 (stereo not drawn) [compound 79, N-(5-hydroxyadamantane-2-yl)-2-methyl-2-(4-chloro-2-nitrophenylsulfonamido)propanamide] |
| 0.072 µM | 0.213 µM | CC(C)(NS(=O)(=O)c1ccc(F)cc1Cl)C(=O)NC1C2CC3CC1CC(O)(C3)C2 (stereo not drawn) [compound 80, N-(5-hydroxyadamantane-2-yl)-2-methyl-2-(4-fluoro-2-chlorophenylsulfonamido)propan amide] |
| 0.03 µM | 0.221 µM | CC(C)(NS(=O)(=O)c1ccc(Cl)cc1Cl)C(=O)NC1C2CC3CC1CC(O)(C3)C2 (stereo not drawn) [compound 81, N-(5-hydroxyadamantane-2-yl)-2-methyl-2-(2,4-dichlorophenylsulfonamido)propanamide] |
| > 2.5 µM | > 2.5 µM | COc1ccc(S(=O)(=O)NC(C)(C)C(=O)NC2C3CC4CC2CC(C(N)=O)(C4)C3)cc1 (stereo not drawn) [compound 86, N-4-(2-(4-methoxyphenylsulfonamido)-2-methylpropanamido)adamantane-1-carboxyamide] |

| IC50 [1] | IC50 [2] | SMILES |
| --- | --- | --- |
| 0.014 µM | 0.056 µM | CC(C)(NS(=O)(=O)c1ccc(Cl)cc1Cl)C(=O)NC1C2CC3CC1CC(C(N)=O)(C3)C2 (stereo not drawn) [compound 88, N-4-(2-(2,4-dichlorophenylsulfonamido)-2-methylpropanamido)adamantane-1-carboxyamide] |
| 0.016 µM | 0.107 µM | Cc1cc(C)cc(S(=O)(=O)NC(C)(C)C(=O)NC2C3CC4CC2CC(C(N)=O)(C4)C3)c1 (stereo not drawn) [compound 91, N-4-(2-(3,5-dimethylphenylsulfonamido)-2-methylpropanamido)adamantane-1-carboxyamide] |
| 0.153 µM | 0.571 µM | CC(C)(NS(=O)(=O)c1ccc(OC(F)F)cc1)C(=O)NC1C2CC3CC1CC(C(N)=O)(C3)C2 (stereo not drawn) [compound 93, N-4-(2-(4-difluoromethoxyphenylsulfonamido)-2-methylpropanamido)adamantane-1-carboxyamide] |
| 0.013 µM | 0.123 µM | Cc1ccc(F)c(S(=O)(=O)NC(C)(C)C(=O)NC2C3CC4CC2CC(C(N)=O)(C4)C3)c1 (stereo not drawn) [compound 94, N-4-(2-(2-fluoro-5-methylphenylsulfonamido)-2-methylpropanamido)adamantane-1-carboxyamide] |
| 0.013 µM | 0.144 µM | Cc1ccc(F)cc1S(=O)(=O)NC(C)(C)C(=O)NC1C2CC3CC1CC(C(N)=O)(C3)C2 (stereo not drawn) [compound 95, N-4-(2-(2-methyl-5-fluorophenylsulfonamido)-2-methylpropanamido)adamantane-1-carboxyamide] |
| 0.223 µM | 0.289 µM | CC(C)(NS(=O)(=O)c1cccnc1Cl)C(=O)NC1C2CC3CC1CC(C(N)=O)(C3)C2 (stereo not drawn) [compound 96, N-4-(2-(2-chloropyridine-3-sulfonamido)-2-methylpropanamido)adamantane-1-carboxyamide] |
| > 2.5 µM | > 2.5 µM | CC(C)(NS(=O)(=O)Cc1ccccc1Cl)C(=O)NC1C2CC3CC1CC(C(N)=O)(C3)C2 (stereo not drawn) [compound 98, N-4-(2-((2-chlorophenyl)methylsulfonamido)-2-methylpropanamido)adamantane-1-carboxyamide] |
| 0.047 µM | 0.124 µM | CCCc1ccc(S(=O)(=O)NC(C)(C)C(=O)NC2C3CC4CC2CC(C(N)=O)(C4)C3)cc1 (stereo not drawn) [compound 99, N-4-(2-(4-propylphenylsulfonamido)-2-methylpropanamido)adamantane-1-carboxyamide] |
| 0.018 µM | 0.21 µM | CC(C)(NS(=O)(=O)c1ccc(Br)cc1OC(F)(F)F)C(=O)NC1C2CC3CC1CC(C(N)=O)(C3)C2 (stereo not drawn) [compound 100, N-4-(2-(2-trifluoromethoxy-4-bromophenylsulfonamido)-2-methylpropanamido)adamantane-1-carboxyamide] |
| 0.009 µM | 0.014 µM | CC(C)(NS(=O)(=O)c1ccc(F)cc1Br)C(=O)NC1C2CC3CC1CC(C(N)=O)(C3)C2 (stereo not drawn) [compound 101, N-4-(2-(2-bromo-4-fluorophenylsulfonamido)-2-methylpropanamido)adamantane-1-carboxyamide] |
| 0.02 µM | 0.037 µM | CC(C)(NS(=O)(=O)c1cccc(Cl)c1F)C(=O)NC1C2CC3CC1CC(C(N)=O)(C3)C2 (stereo not drawn) [compound 102, N-4-(2-(2-fluoro-3-chlorophenylsulfonamido)-2-methylpropanamido)adamantane-1-carboxyamide] |
| 0.026 µM | 0.037 µM | Cc1ccc(S(=O)(=O)NC(C)(C)C(=O)NC2C3CC4CC2CC(C(N)=O)(C4)C3)cc1Cl (stereo not drawn) [compound 103, N-4-(2-(3-chloro-4-methylphenylsulfonamido)-2-methylpropanamido)adamantane-1-carboxyamide] |
| 0.178 µM | 0.563 µM | CC(C)(NS(=O)(=O)c1cccc([N+](=O)[O-])c1)C(=O)NC1C2CC3CC1CC(C(N)=O)(C3)C2 (stereo not drawn) [compound 107, N-4-(2-(3-nitrophenylsulfonamido)-2-methylpropanamido)adamantane-1-carboxyamide] |
| 0.045 µM | 1.24 µM | CC(C)(NS(=O)(=O)c1cc(C(F)(F)F)ccc1C(F)(F)F)C(=O)NC1C2CC3CC1CC(C(N)=O)(C3)C2 (stereo not drawn) [compound 109, N-4-(2-(2,5-bistrifluoromethylphenylsulfonamido)-2-methylpropanamido)adamantane-1-carboxyamide] |
| 0.014 µM | 0.556 µM | CC(C)(NS(=O)(=O)c1cc(C(F)(F)F)ccc1Br)C(=O)NC1C2CC3CC1CC(C(N)=O)(C3)C2 (stereo not drawn) [compound 110, N-4-(2-(2-bromo-5-trifluoromethylphenylsulfonamido)-2-methylpropanamido)adamantane-1-carboxyamide] |
| 1.3 µM | 2.46 µM | COc1ccc(S(=O)(=O)NC(C)(C)C(=O)NC2C3CC4CC2CC(C(N)=O)(C4)C3)cc1[N+](=O)[O-] (stereo not drawn) [compound 111, N-4-(2-(3-nitro-4-methoxyphenylsulfonamido)-2-methylpropanamido)adamantane-1-carboxyamide] |
